Data set [1] has as its system J774 macrophages. Description: Nitrite production by immunostimulated J774 macrophages (endotoxin 24 h, Griess). It counts as cell-based, mouse. The settings on record: Mus musculus, read-out: EC50 for the inhibition of nitrite production by stimulated J774 macrophages. The procedure:
(§1) This example illustrates the effect of selected mercapto derivatives on endotoxin-induced nitrite formation in J774.2 macrophages and on IL-1 gamma-interferon induced nitrite formation in cultured rat arctic smooth muscle cells. J774 macrophage cell lines were obtained from the American Type Culture Collection (ATCC) and were grown using standard methods in Dulbecco's Modified Eagle Medium (DMEM) supplemented with 10% fetal bovine serum, glutamine, penicillin (10,000 U/l) and streptomycin (10,000 U/l). Rat aortic smooth muscle cells (RASM) from Wistar rats were isolated by enzymatic dissociation using standard methods. The cells were positively identified as smooth muscle by indirect immunofluorescent staining for a-actin, using mouse anti-α-actin antibody and anti-mouse IgG fluorescein isothiocyanate (FITC) conjugate. RASM cells were grown in T-75 tissue culture flasks in 50% F12 nutrient medium and 50% Dulbecco's Modified Eagle Medium supplemented with 10% fetal bovine serum, glutamine, penicillin (10,000 U/l) and streptomycin (10,000 U/l). Cells were grown in 96-well plates for measure of nitrite production and cell viability. J774 macrophages were treated with endotoxin (10 μg/ml) for 24 hours; smooth muscle cells were treated with IL-1 (100 U/ml) and gamma-interferon (50 U/ml) for 48 hours.
Concentration of nitrite, the degradation product of NO in the culture medium, was determined by mixing equal volumes of medium with the Griess reagent (1% sulfanilamide/0.1% naphthylethylenediamine dihydrochloride/2.5% H3 PO4). The mixture was incubated for 10 minutes at room temperature to form the chromophore, then optical densities (OD) were determined at 550 nm (OD550). NaNO2 was used as the standard. Spectrophotometric measurements were performed in a dual-wavelength spectrophotometer.
On the technique in general: The Griess reaction detects nitrite, a stable product of nitric oxide.

For data set [2], the target named is T1, ecNOS (Bos taurus, UniProt P29473).
T1 construct: the intimal surface of fresh bovine aortae was scraped and homogenized; from tissue; host or cells: homogenate of intimal scrapings of fresh bovine aortae
Nature of the data set: ecNOS activity from intimal scrapings of fresh bovine aortae (conversion of [3H]-L-arginine to [3H]-L-citrulline). It counts as biochemical. The procedure: The intimal surface of fresh bovine aortae was scraped in the presence of homogenation buffer composed of 50 mM Tris-HCl, 0.1 mM ethylenediamine tetraacetic acid (EDTA) and 0.1 mM ethyleneglycol bis (beta-aminoethyl ether) (EGTA). Conversion of [^3 H]-L-arginine to [^3 H]-L-citrulline was measured in the homogenates as follows: cell homogenate (50 μl) was incubated in the presence of [^3 H]-L-arginine (10 μM, 5 kBq/tube), NADPH (2 mM), calmodulin (30 nM), tetrahydrobiopterin (5 μM) and calcium (2 mM) for 20 minutes at 37° C. in N-2-hydroxethyl piperazine-N-2-ethane sulfonic acid (HEPES) buffer (pH 7.5). Reactions were stopped by dilution with 1 ml of ice cold HEPES buffer (pH 5.5) containing EGTA (2 mM) and EDTA (2 mM). Reaction mixtures were applied to Dowex 50W (Na^+ form) columns and the eluted [^3 H]-L-citrulline activity was measured by scintillation counting. bNOS activity was measured using similar methods in homogenates of whole rat brains.
For a preparation rich in ecNOS, the intimal surface of fresh bovine aortae was scraped and homogenized. The homogenization buffer was composed of 50 mM tris-HCL, 0.1 mM EDTA, 0.1 mM EGTA and 1 mM phenylmethylsulfonyl chloride (pH 7.4). Cell suspensions were homogenized in the homogenization buffer on ice using a Tissue Tearor 985-370 homogenizer (BioSpec Products, Racine, Wis.). Conversion of [^3 H]-L-arginine to [^3 H]-L-citrulline was measured in the homogenates as described in Example 3 above.

Data set [3] deals with T2, bNOS (Rattus norvegicus, UniProt P29476).
T2 construct: bNOS activity was measured using similar methods in homogenates of whole rat brains; from tissue; host or cells: homogenate of whole rat brains
T2 sequence (P29476 whole entry): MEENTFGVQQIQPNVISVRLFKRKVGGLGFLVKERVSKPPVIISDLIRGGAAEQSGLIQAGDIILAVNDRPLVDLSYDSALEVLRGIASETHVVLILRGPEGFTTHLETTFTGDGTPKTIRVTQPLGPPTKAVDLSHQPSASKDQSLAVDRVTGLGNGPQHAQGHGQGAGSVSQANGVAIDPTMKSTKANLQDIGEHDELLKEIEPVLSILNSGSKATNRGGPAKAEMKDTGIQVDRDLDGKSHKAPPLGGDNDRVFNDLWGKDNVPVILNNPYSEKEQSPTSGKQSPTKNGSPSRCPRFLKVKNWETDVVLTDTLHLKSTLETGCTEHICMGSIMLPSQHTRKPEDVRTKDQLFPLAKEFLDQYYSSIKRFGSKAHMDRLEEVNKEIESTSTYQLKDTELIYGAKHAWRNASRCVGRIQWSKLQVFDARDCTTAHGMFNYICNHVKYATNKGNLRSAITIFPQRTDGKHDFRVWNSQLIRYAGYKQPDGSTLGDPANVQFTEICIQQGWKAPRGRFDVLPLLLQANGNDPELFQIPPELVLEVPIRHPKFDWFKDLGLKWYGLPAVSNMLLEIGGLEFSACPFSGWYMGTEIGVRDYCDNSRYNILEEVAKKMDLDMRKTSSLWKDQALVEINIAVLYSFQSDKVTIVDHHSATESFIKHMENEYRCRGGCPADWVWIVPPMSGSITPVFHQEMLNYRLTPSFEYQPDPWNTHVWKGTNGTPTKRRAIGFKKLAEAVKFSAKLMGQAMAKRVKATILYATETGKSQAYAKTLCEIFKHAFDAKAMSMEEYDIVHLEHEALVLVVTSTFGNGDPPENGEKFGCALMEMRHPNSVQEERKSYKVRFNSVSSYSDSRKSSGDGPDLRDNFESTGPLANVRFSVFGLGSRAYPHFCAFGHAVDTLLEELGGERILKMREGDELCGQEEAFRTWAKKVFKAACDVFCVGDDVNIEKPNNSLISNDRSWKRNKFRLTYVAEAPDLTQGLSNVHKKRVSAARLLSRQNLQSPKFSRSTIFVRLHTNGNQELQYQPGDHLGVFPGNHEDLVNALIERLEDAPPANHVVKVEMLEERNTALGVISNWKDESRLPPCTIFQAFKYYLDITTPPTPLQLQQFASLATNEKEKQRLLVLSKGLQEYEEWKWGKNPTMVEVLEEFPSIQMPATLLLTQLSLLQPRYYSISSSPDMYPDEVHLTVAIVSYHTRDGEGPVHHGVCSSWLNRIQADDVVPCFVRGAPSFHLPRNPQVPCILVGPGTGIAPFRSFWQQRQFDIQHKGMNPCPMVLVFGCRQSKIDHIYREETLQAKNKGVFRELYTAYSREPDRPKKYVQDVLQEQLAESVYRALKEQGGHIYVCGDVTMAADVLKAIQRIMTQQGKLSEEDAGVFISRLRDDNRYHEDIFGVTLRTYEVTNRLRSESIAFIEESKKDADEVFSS
Description: bNOS activity in homogenates of whole rat brains. It counts as biochemical.

For data set [4], the system named is constitutive and inducible NOS isoforms. The settings on record: background literature; cited from earlier work.
The target of data set [5] is T3, iNOS (Rattus norvegicus, UniProt Q06518). Nature of the data set: Inhibition of iNOS activity in tissue homogenates (Table 2). It counts as biochemical. Set-up: bNOS in tissue homogenates; from tissue; host or cells: tissue homogenate. The settings on record: iNOS (Table 2).
Data set [6] can be described thus: Mean arterial blood pressure in normal anesthetized rats. It counts as in vivo, Male Wistar rats. To be noted: i.v. or i.p.
Description: An increase in blood pressure by agents that inhibit NOS is a good measure of their inhibitory effect on the constitutive, endothelial NOS (ecNOS).
In this particular example, Male Wistar rats were anesthetized with thiopentone sodium (120 mg/kg, i.p). The trachea was cannulated to facilitate respiration and the rectal temperature was maintained at 37° C. by means of a rectal probe connected to a homeothermic blanket. The right carotid artery was cannulated and connected to a pressure transducer for the measurement of phasic and mean arterial blood pressure and heart rate. The left and right femoral veins were cannulated for the administration of drugs.
Data set [7] has as its system J774.2 macrophages. Description: Nitrite production in immunostimulated J774.2 macrophages (E.coli LPS + murine gamma-interferon, 24 h). It counts as cell-based, mouse. To be noted: Mus musculus. The procedure: This example illustrates the effect of selected mercapto and seleno derivatives on nitrite production in J774.2 immunostimulated macrophages. The J774.2 mouse macrophage cell line was obtained from the ATCC and was cultured in DMEM with 4×10^-3 M L-glutamine and 10% fetal calf serum. Cells were cultured in 96-well plates with 200 μl culture medium until they reached 60-80% confluence. To induce INOS, fresh culture medium containing E.coli LPS (10 μg/ml) and murine gamma-interferon (IFN)(50 U/ml) was added. Nitrite accumulation in the cell culture medium in the absence or presence of various inhibitors was measured after 24 hours. Nitrite production, an indicator of NO synthesis, was measured in the supernatant of J774.2 macrophages by the Greiss reaction as described in Example 1 above.
This Example illustrates the effect of selected seleno derivatives on endotoxin-induced nitrite formation in J774.2 macrophages. The mouse macrophage cell line J774.2 obtained from the ATCC was cultured in DMEM with 4×10^-3 M L-glutamine and 10% fetal calf serum. Cells were cultured in 96-well plates with 200 μl culture medium until they reached 60-80% confluence. To induce iNOS, fresh culture medium containing E.coli LPS (10 μg/ml) and murine gamma-interferon (IFN)(50 U/ml) were added. Nitrite accumulation in the cell culture medium in the absence or presence of various inhibitors was measured after 24 hours. There was no detectable nitrite production by the J774.2 macrophages in the absence of immunostimulation. However, in the presence of IFN and LPS, nitrite concentration of the medium increased to 17±2 μM in the absence of inhibitor.

Data set [8] has as its target T3, iNOS. Nature of the data set: iNOS activity in lung homogenates from rats treated with bacterial endotoxin. It counts as biochemical. Set-up: Lungs were obtained from rats which had been treated with bacterial endotoxin; from tissue; host or cells: lung homogenate from endotoxin-treated rats. The procedure:
This Example illustrates the effect of selected mercapto and seleno derivatives on iNOS activity in lung homogenates prepared from rats treated with endotoxin. […] The homogenization buffer was composed of 50 mM tris-HCL, 0.1 mM EDTA, 0.1 mM EGTA and 1 mM phenylmethylsulfonyl chloride (pH 7.4). Cell suspensions were homogenized in the homogenization buffer on ice using a Tissue Tearor 985-370 homogenizer (BioSpec Products, Racine, Wis.).

Data set [9] has as its system J774 macrophages. Description: Mitochondrial respiration (MTT reduction), cell viability of immunostimulated J774 macrophages. It counts as cell-based, mouse. The procedure: as §1
Mitochondrial respiration, an indicator of cell viability, was assessed by the mitochondrial-dependent reduction of MTT [3-(4,5-dimethylthiazol-2-yl)-2,5-diphenyltetrazolium bromide] to formazan. Cells in 96-well plates were incubated (37° C.) with MTT (0.2 mg/ml for 60 minutes). Culture medium was removed by aspiration and the cells solubilized in dimethylsulfoxide (DMSO) (100 μl). The extent of reduction of MTT to formazan within cells was quantitated by measurement of OD550 using a microplate reader. The calibration curve for the reduction of MTT to formazan was prepared in DMSO. Formazan production by cells was expressed as a percentage of the values obtained from untreated cells.
In general terms: Tetrazolium assays rely on reduction of a dye to a coloured formazan, in cell work by metabolically active cells.

Setting [10] is: ecNOS (Table 2), read-out: EC50 for inhibition of ecNOS activity in tissue homogenates.
The mark [11] stands for this setting: J774, endotoxin 10 μg/ml, 24 h (Table 1).

Where two headings read alike, the source gives them in different places.

For the compound `N=C(N)NN` [Aminoguanidine, reference compound], the EC50 is 120 µM in [1] (J774, 24 h); 2600 µM in data set [2] (setting [10]); 220 µM in data set [3] (bNOS (Table 2), read-out: EC50 for inhibition of bNOS activity in tissue homogenates); 80 µM in [5]. Besides, the “NOS inhibition / isoform selectivity, in words” value in [4] is given as “selectively inhibit the inducible isoform of nitric oxide synthase”.
For `CNC(=N)NCCC[C@H](N)C(=O)O` [L-NMA, N^G -Methyl-L-arginine, reference compound], the EC50 in [1] (setting [11]) was found to be 159 µM; in data set [7] (J774.2, IFN and LPS, Example 9, read-out: EC50, inhibition of nitrite production) it was 90 µM; in [5], 17 µM. Further, the “mean arterial blood pressure (MAP) response” value in [6] was “pronounced and dose-dependent pressor response”. For the same compound, in [7] (J774.2, 24 h, inhibitor concentration -3.000 log M (Table 3), read-out: NITRITE (% OF CONTROL)), the activity at 1000 µM came to 12.6%. Further, the activity at 100 µM in data set [7] (J774.2, 24 h, inhibitor concentration -4.000 log M (Table 3), read-out: NITRITE (% OF CONTROL)) worked out at 45%. The activity at 10 µM in data set [7] (J774.2, 24 h, inhibitor concentration -5.000 log M (Table 3), read-out: NITRITE (% OF CONTROL)) was 73.5%. Moreover, in data set [7] (J774.2, 24 h, inhibitor concentration -6.000 log M (Table 3), read-out: NITRITE (% OF CONTROL)), the activity at 1 µM is 95%. The “iNOS ACTIVITY (%)” value in [8] (inhibitor concentration -3.000 log M) was 18.000%; in data set [8] (inhibitor concentration -4.000 log M), 40.00%; in data set [8] (inhibitor concentration -5.000 log M) it was 100.000%; in [8] (inhibitor concentration -6.000 log M), 100.000%; in [8] (inhibitor concentration -7.000 log M), 100.000%. Also, the “inhibition of iNOS activity, in words” value in data set [8] (lung homogenates, rats treated with endotoxin) is on record as “somewhat similar in their inhibitory effect on INOS activity”.
Regarding `N=C(N)NCCCS` [MPG, mercaptopropylguanidine], the EC50 in [1] (setting [11]) is 15 µM; in data set [2] (setting [10]) it was 4 µM; in data set [3], 80 µM; in data set [5] it was 7 µM. For the same compound, the cellular viability entry in data set [9] (1 mM) is recorded as “a slight reduction in viability was observed”; in data set [9] (effective doses 1-100 μM) it was “did not decrease cellular viability”.
As for `N=C(N)NCCS` [MEG, mercaptoethylguanidine], the EC50 in data set [1] (setting [11]) was 13 µM; in data set [2] (setting [10]) it was 110 µM; in data set [3], 60 µM; in [5], 11.5 µM. Further, the cellular viability entry is reported as “a slight reduction in viability was observed” in data set [9] (1 mM) and “did not decrease cellular viability” in data set [9] (effective doses 1-100 μM).
On to `COC(=O)[C@@H](N)CCCNC(=N)N[N+](=O)[O-]` [L-NAME, NG-nitro-L-arginine methyl ester, reference compound], for which, in data set [2] (n=6, bovine aorta, read-out: EC50, dose dependent inhibition of ecNOS activity), the EC50 was determined as 2 µM. Besides, in [4], the “NOS inhibition / isoform selectivity, in words” value was “inhibit both the constitutive and the inducible NOS isoforms to a similar extent”.

One may read the EC50 as the concentration needed to bring the measured effect to its halfway point.

Source of the values: US5929063A, “Mercapto and seleno derivatives as inhibitors of nitric oxide synthase” (priority 1995, dated 1999).
